In US11707454B2, “Topical roflumilast formulation having antifungal properties” (ARCUTIS BIOTHERAPEUTICS, INC., priority 2020, dated 2023):
Where two headings read alike, the source gives them in different places.

Assays:
Type in all cases: cell-based
C. albicans (ATCC 90028) = assay: in vitro micro-dilution susceptibility assay (method of Rojas); details: Candida albicans, read-out: minimum inhibition concentration (MIC)
Description: (§1) The in vitro susceptibility of Malassezia species to roflumilast was determined utilizing three Candida species as internal control isolates for all testing. These three isolates were C. albicans American Type Culture Collection (ATCC) 90028, C. krusei (ATCC 6258) and C. parapsilosis (ATCC 22019). In addition to testing roflumilast all susceptibility assays were conducted using ketoconazole and hydrocortisone as positive and negative control compounds, respectively. All assays were placed within a humidified incubator set to 32° C. for a total of seven days. Each assay was evaluated after 12 hours of incubation and, every 24 hours post incubation for a total of seven days. The assays were evaluated for visual growth of each pathogen in the no treatment control as well as determination of minimum inhibition concentration (MIC) values. The concentration that provides a 3-log10 CFU/mL reduction in fungal burden from baseline at day 0 was defined as the minimum fungicidal concentration (MHC) and was determined by quantifying fungal burdens found in the microplate at day seven.
(§2) The method of Rojas (Rojas F D, et al. Antifungal susceptibility of Malassezia furfur, Malassezia sympodialis, and Malassezia globose to azole drugs and amphotericin B evaluated using a broth microdilution method. 2014. Medical Mycology. 52:641-646) was used in which the liquid broth medium was RPMI 1640 with added 1.8% glucose, 1% peptone, 0.5% ox-bile, 0.5% malt extract, 1% glycerol, 0.5% Tween 40 and 0.05% Tween 80. Round bottom 96 well microplates were used. The inoculums were prepared in sterile saline and diluted to a final targeted concentration of 0.5×10^5 to 2.5×10^5 CFU/mL in supplemented RPMI. […] For the internal control isolate C. parapsilosis (ATCC 22019) the expected CLSI values for ketoconazole of 0.03-0.25 (at 24 hours) and 0.06-0.5 (at 48 hours) did agree with the 2-day value (Table A) of 0.5.

C. krusei (ATCC 6258) = assay: as above; details: Pichia kudriavzevii, read-out: minimum inhibition concentration (MIC)
Description: as §1, §2

[1] = test system: C. parapsilosis (ATCC 22019); assay: as above; details: Lodderomyces parapsilosis, C. parapsilosis (22019), read-out: minimum inhibition concentration (MIC)
Description: as §1, §2

M. furfur (ATCC 12078) = assay: as above; details: for MIC: Malassezia furfur, read-out: minimum inhibition concentration (MIC)
Description: as §1, §2

M. furfur (ATCC 14521) = assay: as above; details: for MIC: Malassezia furfur, read-out: minimum inhibition concentration (MIC)
Description: as §1, §2

M. furfur (ATCC 44344) = assay: as above; details: for MIC: Malassezia furfur, read-out: minimum inhibition concentration (MIC)
Description: as §1, §2

[2] = test system: M. globose (ATCC MYA-4889); assay: as above; details: for MIC: read-out: minimum inhibition concentration (MIC)
Description: as §1, §2

[3] = test system: M. restricta (ATCC MYA-4611); assay: as above; details: for MIC: read-out: minimum inhibition concentration (MIC)
Description: as §1, §2

[4] = test system: Malassezia species and Candida species; assay: in vitro micro-dilution susceptibility assay, summary over all isolates; details: negative control
Description: as §1, with “seven. […]” for “seven.”

## C[C@]12CCC(=O)C=C1CC[C@@H]1[C@@H]2[C@@H](O)C[C@@]2(C)[C@H]1CC[C@]2(O)C(=O)CO [Hydrocortisone]
C. albicans (ATCC 90028); ATCC90028, 12 h, Time 0.5 days
  MIC: > 1020 µg/mL
C. albicans (ATCC 90028); ATCC90028, 24 h, Time 1 days
  MIC: > 1020 µg/mL
C. albicans (ATCC 90028); ATCC90028, 48 h, Time 2 days
  MIC: > 1020 µg/mL
C. albicans (ATCC 90028); ATCC90028, 72 h, Time 3 days
  MIC: > 1020 µg/mL
C. albicans (ATCC 90028); ATCC90028, 96 h, Time 4 days
  MIC: > 1020 µg/mL
C. albicans (ATCC 90028); ATCC90028, 120 h, Time 5 days
  MIC: > 1020 µg/mL
C. albicans (ATCC 90028); ATCC90028, 144 h, Time 6 days
  MIC: > 1020 µg/mL
C. albicans (ATCC 90028); ATCC90028, 168 h, Time 7 days
  MIC: > 1020 µg/mL
C. krusei (ATCC 6258); ATCC6258, 12 h, Time 0.5 days
  MIC: > 1020 µg/mL
C. krusei (ATCC 6258); ATCC6258, 24 h, Time 1 days
  MIC: > 1020 µg/mL
C. krusei (ATCC 6258); ATCC6258, 48 h, Time 2 days
  MIC: > 1020 µg/mL
C. krusei (ATCC 6258); ATCC6258, 72 h, Time 3 days
  MIC: > 1020 µg/mL
C. krusei (ATCC 6258); ATCC6258, 96 h, Time 4 days
  MIC: > 1020 µg/mL
C. krusei (ATCC 6258); ATCC6258, 120 h, Time 5 days
  MIC: > 1020 µg/mL
C. krusei (ATCC 6258); ATCC6258, 144 h, Time 6 days
  MIC: > 1020 µg/mL
C. krusei (ATCC 6258); ATCC6258, 168 h, Time 7 days
  MIC: > 1020 µg/mL
[1]; ATCC22019, 12 h, Time 0.5 days
  MIC: > 1020 µg/mL
[1]; ATCC22019, 24 h, Time 1 days
  MIC: > 1020 µg/mL
[1]; ATCC22019, 48 h, Time 2 days
  MIC: > 1020 µg/mL
[1]; ATCC22019, 72 h, Time 3 days
  MIC: > 1020 µg/mL
[1]; ATCC22019, 96 h, Time 4 days
  MIC: > 1020 µg/mL
[1]; ATCC22019, 120 h, Time 5 days
  MIC: > 1020 µg/mL
[1]; ATCC22019, 144 h, Time 6 days
  MIC: > 1020 µg/mL
[1]; ATCC22019, 168 h, Time 7 days
  MIC: > 1020 µg/mL
M. furfur (ATCC 12078); ATCC12078, 48 h, Time 2 days
  MIC: > 1020 µg/mL
M. furfur (ATCC 12078); ATCC12078, 72 h, Time 3 days
  MIC: > 1020 µg/mL
M. furfur (ATCC 12078); ATCC12078, 96 h, Time 4 days
  MIC: > 1020 µg/mL
M. furfur (ATCC 12078); ATCC12078, 120 h, Time 5 days
  MIC: > 1020 µg/mL
M. furfur (ATCC 12078); ATCC12078, 144 h, Time 6 days
  MIC: > 1020 µg/mL
M. furfur (ATCC 12078); ATCC12078, 168 h, Time 7 days
  MIC: > 1020 µg/mL
M. furfur (ATCC 12078); Time 0.5 days
  minimum inhibition concentration (MIC): NGO
M. furfur (ATCC 12078); Time 1 days
  minimum inhibition concentration (MIC): NGO
M. furfur (ATCC 14521); ATCC14521, 48 h, Time 2 days
  MIC: > 1020 µg/mL
M. furfur (ATCC 14521); ATCC14521, 72 h, Time 3 days
  MIC: > 1020 µg/mL
M. furfur (ATCC 14521); ATCC14521, 96 h, Time 4 days
  MIC: > 1020 µg/mL
M. furfur (ATCC 14521); ATCC14521, 120 h, Time 5 days
  MIC: > 1020 µg/mL
M. furfur (ATCC 14521); ATCC14521, 144 h, Time 6 days
  MIC: > 1020 µg/mL
M. furfur (ATCC 14521); ATCC14521, 168 h, Time 7 days
  MIC: > 1020 µg/mL
M. furfur (ATCC 14521); Time 0.5 days
  minimum inhibition concentration (MIC): NGO
M. furfur (ATCC 14521); Time 1 days
  minimum inhibition concentration (MIC): NGO
M. furfur (ATCC 44344); ATCC44344, 48 h, Time 2 days
  MIC: > 1020 µg/mL
M. furfur (ATCC 44344); ATCC44344, 72 h, Time 3 days
  MIC: > 1020 µg/mL
M. furfur (ATCC 44344); ATCC44344, 96 h, Time 4 days
  MIC: > 1020 µg/mL
M. furfur (ATCC 44344); ATCC44344, 120 h, Time 5 days
  MIC: > 1020 µg/mL
M. furfur (ATCC 44344); ATCC44344, 144 h, Time 6 days
  MIC: > 1020 µg/mL
M. furfur (ATCC 44344); ATCC44344, 168 h, Time 7 days
  MIC: > 1020 µg/mL
M. furfur (ATCC 44344); Time 0.5 days
  minimum inhibition concentration (MIC): NGO
M. furfur (ATCC 44344); Time 1 days
  minimum inhibition concentration (MIC): NGO
[2]; 120 h, Time 5 days
  MIC: > 1020 µg/mL
[2]; 144 h, Time 6 days
  MIC: > 1020 µg/mL
[2]; 168 h, Time 7 days
  MIC: > 1020 µg/mL
[2]; Time 0.5 days
  minimum inhibition concentration (MIC): NGO
[2]; Time 1 days
  minimum inhibition concentration (MIC): NGO
[2]; Time 2 days
  minimum inhibition concentration (MIC): NGO
[2]; Time 3 days
  minimum inhibition concentration (MIC): NGO
[2]; Time 4 days
  minimum inhibition concentration (MIC): NGO
[3]; 120 h, Time 5 days
  MIC: > 1020 µg/mL
[3]; 144 h, Time 6 days
  MIC: > 1020 µg/mL
[3]; 168 h, Time 7 days
  MIC: > 1020 µg/mL
[3]; Time 0.5 days
  minimum inhibition concentration (MIC): NGO
[3]; Time 1 days
  minimum inhibition concentration (MIC): NGO
[3]; Time 2 days
  minimum inhibition concentration (MIC): NGO
[3]; Time 3 days
  minimum inhibition concentration (MIC): NGO
[3]; Time 4 days
  minimum inhibition concentration (MIC): NGO
[4]
  anti-fungal activity (all isolates): no anti-fungal activity
